Each structure is given as a SMILES string.

From patent US11807644B2 (PMV Pharmaceuticals, Inc., priority 2020, dated 2023) come the findings set out here.

The first assay has as its target T1, recombinant His-tag Y220C p53 DBD protein (Homo sapiens, UniProt P04637, Y220C).
T1 construct: recombinant His-tag Y220C p53 DBD protein (amino acids #˜94-312)
The assay is described as follows: In vitro DNA binding activity assay (TR-FRET): binding of His-tag Y220C p53 DBD to biotin-labeled consensus DNA. It is filed as biochemical. The conditions noted are these: SC150 = concentration to increase DNA binding by […], His-tag Y220C p53 DBD, biotin-labeled consensus DNA. Background: In TR-FRET formats the signal depends on donor and acceptor labels being close together.
Turning to `CN1CC[C@@H](Nc2cccc3c2cc(-c2noc(CNC(=O)c4c[nH]c(C(C)(C)C)c4)n2)n3CC(F)(F)F)[C@@H](F)C1` [Compound 484B, 5-tert-butyl-N-{[3-(4-{1[(3S,4R)-3-fluoro-1-methylpiperidin-4-yl]amino}-1-(2,2,2-trifluoroethyl)-1H-indol-2-yl)-1,2,4-oxadiazol-5-yl]methyl}-1H-pyrrole-3-carboxamide], the “Y220C SC150 (μM)” value is on record as “* (* = 0 μM ≤ SC150 < 0.1 μM)”.

For the compound `CCN1CC[C@@H](Nc2cccc3c2cc(-c2noc(CNC(=O)c4cnn(C5CCOCC5)c4)n2)n3CC(F)(F)F)[C@@H](F)C1` [Compound 334B, N-{[3-(4-{[(3S,4R)-1-ethyl-3-fluoropiperidin-4-yl]amino)-1-(2,2,2-trifluoroethyl)-1H-indol-2-yl)-1,2,4-oxadiazol-5-yl]methyl}-1-(oxan-4-yl)-1H-pyrazole-4-carboxamide], the “Y220C SC150 (μM)” value is “* (* = 0 μM ≤ SC150 < 0.1 μM)”.

For `C[C@@H]1CN(C)CC[C@@H]1Nc1cccc2c1cc(-c1noc(CNC(=O)c3ccn(C(C)(C)C)c3)n1)n2CC(F)(F)F` [Compound 513B, 1-tert-butyl-N-{[3-(4-{[(3R,4S)-1,3-dimethylpiperidin-4-yl]amino}-1-(2,2,2-trifluoroethyl)-1H-indol-2-yl)-1,2,4-oxadiazol-5-yl]methyl}-1H-pyrrole-3-carboxamide], the “Y220C SC150 (μM)” value is listed as “* (* = 0 μM ≤ SC150 < 0.1 μM)”.

Turning to `COCc1ccc(C(=O)NCc2nc(-c3cc4c(N[C@@H]5CCN(C)C[C@@H]5F)cccc4n3CC(F)(F)F)no2)s1` [Compound 458B, N-{[3-(4-{[(3S,4R)-3-fluoro-1-methylpiperidin-4-yl]amino}-1-(2,2,2-trifluoroethyl)-1H-indol-2-yl)-1,2,4-oxadiazol-5-yl]methyl}-5-(methoxymethyl)thiophene-2-carboxamide], the “Y220C SC150 (μM)” value is given as “* (* = 0 μM ≤ SC150 < 0.1 μM)”.

Consider `CCN1CC[C@@H](Nc2cccc3c2cc(-c2noc(CNC(=O)c4cn(C(C)(C)C)cn4)n2)n3CC(F)(F)F)[C@@H](F)C1` [Compound 305B, 1-tert-butyl-N-{[3-(4-{[(3S,4R)-1-ethyl-3-fluoropiperidin-4-yl]amino}-1-(2,2,2-trifluoroethyl)-1H-indol-2-yl)-1,2,4-oxadiazol-5-yl]methyl}-1H-imidazole-4-carboxamide], for which the “Y220C SC150 (μM)” value was “* (* = 0 μM ≤ SC150 < 0.1 μM)”.

For the compound `C[C@H]1CN(C)CC[C@H]1Nc1cccc2c1cc(-c1noc(CNC(=O)c3ccn(C(C)(C)C)c3)n1)n2CC(F)(F)F` [Compound 514B, 1-tert-butyl-N-{[3-(4-{[(3S,4R)-1,3-dimethylpiperidin-4-yl]amino}-1-(2,2,2-trifluoroethyl)-1H-indol-2-yl)-1,2,4-oxadiazol-5-yl]methyl}-1H-pyrrole-3-carboxamide], the “Y220C SC150 (μM)” value is listed as “* (* = 0 μM ≤ SC150 < 0.1 μM)”.

Turning to `COc1cccc(C(=O)NCc2nnc(-c3cc4c(N[C@H]5CCN(C)C[C@H]5F)cccc4n3CC(F)(F)F)o2)c1` (racemic) [Compound 119B, (+/−)-N-{[5-(4-{[(3R,4S)-3-fluoro-1-methylpiperidin-4-yl]amino}-1-(2,2,2-trifluoroethyl)-1H-indol-2-yl)-1,3,4-oxadiazol-2-yl]methyl}-3-methoxybenzamide], the “Y220C SC150 (μM)” value was “** (** = 0.1 μM ≤ SC150 < 0.5 μM)”.

As for `CN1CC[C@@H](Nc2cccc3c2cc(-c2noc(CNC(=O)c4cnn(CCF)c4)n2)n3CC(F)(F)F)[C@@H](F)C1` [Compound 301B], the “Y220C SC150 (μM)” value is “* (* = 0 μM ≤ SC150 < 0.1 μM)”.

Turning to `CN1CCC(Nc2cccc3c2cc(-c2nnc(CNC(=O)[C@H]4C[C@@H]4c4ccccc4)s2)n3CC(F)(F)F)CC1` (racemic) [Compound 53B, (+/−)-(1S,2S)-N-[(5-{4-[(1-methylpiperidin-4-yl)amino]-1-(2,2,2-trifluoroethyl)-1H-indol-2-yl}-1,3,4-thiadiazol-2-yl)methyl]-2-phenylcyclopropane-1-carboxamide], the “Y220C SC150 (μM)” value is reported as “* (* = 0 μM ≤ SC150 < 0.1 μM)”.

As to `CN1CC[C@@H](Nc2cccc3c2cc(-c2noc(CNC(=O)c4ccn(C(C)(C)C)c4)n2)n3CC(F)(F)F)[C@@H](F)C1` [Compound 194B, 1-tert-butyl-N-{[3-(4-{[(3S,4R)-3-fluoro-1-methylpiperidin-4-yl]amino}-1-(2,2,2-trifluoroethyl)-1H-indol-2-yl)-1,2,4-oxadiazol-5-yl]methyl}-1H-pyrrole-3-carboxamide], the “Y220C SC150 (μM)” value is “* (* = 0 μM ≤ SC150 < 0.1 μM)”.

Consider `CC(C)(C)N1CC[C@@H](Nc2cccc3c2cc(-c2noc(CNC(=O)c4ccn(C(C)(C)C)c4)n2)n3CC(F)(F)F)[C@@H](F)C1` [Compound 393B, 1-tert-butyl-N-{[3-(4-{[(3S,4R)-1-tert-butyl-3-fluoropiperidin-4-yl]amino}-1-(2,2,2-trifluoroethyl)-1H-indol-2-yl)-1,2,4-oxadiazol-5-yl]methyl}-1H-pyrrole-3-carboxamide], for which the “Y220C SC150 (μM)” value is recorded as “* (* = 0 μM ≤ SC150 < 0.1 μM)”.

`CN1CC[C@@H](Nc2cccc3c2cc(-c2noc(CNC(=O)c4cn(C)nn4)n2)n3CC(F)(F)F)[C@@H](F)C1` [Compound 236B, N-{[3-(4-{[(3S,4R)-3-fluoro-1-methylpiperidin-4-yl]amino}-1-(2,2,2-trifluoroethyl)-1H-indol-2-yl)-1,2,4-oxadiazol-5-yl]methyl}-1-methyl-1H-1,2,3-triazole-4-carboxamide]: the “Y220C SC150 (μM)” value is recorded as “* (* = 0 μM ≤ SC150 < 0.1 μM)”.

For `CC(C)c1nc(C(=O)NCc2nc(-c3cc4c(N[C@@H]5CCN(C)C[C@@H]5F)cccc4n3CC(F)(F)F)no2)cs1` [Compound 434B, N-{[3-(4-{[(3S,4R)-3-fluoro-1-methylpiperidin-4-yl]amino}-1-(2,2,2-trifluoroethyl)-1H-indol-2-yl)-1,2,4-oxadiazol-5-yl]methyl}-2-(propan-2-yl)-1,3-thiazole-4-carboxamide], the “Y220C SC150 (μM)” value is recorded as “* (* = 0 μM ≤ SC150 < 0.1 μM)”.

For the compound `CN(C)CCn1ccc(C(=O)NCc2nc(-c3cc4c(N[C@@H]5CCN(C)C[C@@H]5F)cccc4n3CC(F)(F)F)no2)c1` [Compound 229B, 1-[2-(dimethylamino)ethyl]-N-{[3-(4-{[(3S,4R)-3-fluoro-1-methylpiperidin-4-yl]amino}-1-(2,2,2-trifluoroethyl)-1H-indol-2-yl)-1,2,4-oxadiazol-5-yl]methyl}-1H-pyrrole-3-carboxamide], the “Y220C SC150 (μM)” value is on record as “* (* = 0 μM ≤ SC150 < 0.1 μM)”.

For `CN1CC[C@@H](Nc2cccc3c2cc(-c2noc(CNC(=O)c4cnn(C5CCC(F)(F)C5)c4)n2)n3CC(F)(F)F)[C@@H](F)C1` (stereo partly drawn) [Compound 344B, 1-(3,3-difluorocyclopentyl)-N-{[3-(4-{1[(3S,4R)-3-fluoro-1-methylpiperidin-4-yl]amino}-1-(2,2,2-trifluoroethyl)-1H-indol-2-yl)-1,2,4-oxadiazol-5-yl]methyl}-1H-pyrazole-4-carboxamide], the “Y220C SC150 (μM)” value was “* (* = 0 μM ≤ SC150 < 0.1 μM)”.

Consider `CNC(=O)NCc1nnc(-c2cc3c(NC4CCN(C)CC4)cccc3n2CC(F)(F)F)s1` [Compound 56B, 3-methyl-1-[(5-{4-[(1-methylpiperidin-4-yl)amino]-1-(2,2,2-trifluoroethyl)-1H-indol-2-yl}-1,3,4-thiadiazol-2-yl)methyl]urea], for which the “Y220C SC150 (μM)” value was “** (** = 0.1 μM ≤ SC150 < 0.5 μM)”.

On to `CC(C)n1cnc(C(=O)NCc2nc(-c3cc4c(N[C@@H]5CCN(C)C[C@@H]5F)cccc4n3CC(F)(F)F)no2)c1` [Compound 232B, N-{[3-(4-{[(3S,4R)-3-fluoro-1-methylpiperidin-4-yl]amino}-1-(2,2,2-trifluoroethyl)-1H-indol-2-yl)-1,2,4-oxadiazol-5-yl]methyl}-1-(propan-2-yl)-1H-imidazole-4-carboxamide], for which the “Y220C SC150 (μM)” value was “* (* = 0 μM ≤ SC150 < 0.1 μM)”.

As for `COCC(C)(C)n1ccc(C(=O)NCc2nc(-c3cc4c(N[C@H]5CN(C)CC[C@H]5F)cccc4n3CC(F)(F)F)no2)c1` [Compound 418B, N-{[3-(4-{[(3S,4R)-4-fluoro-1-methylpiperidin-3-yl]amino}-1-(2,2,2-trifluoroethyl)-1H-indol-2-yl)-1,2,4-oxadiazol-5-yl]methyl}-1-(1-methoxy-2-methylpropan-2-yl)-1H-pyrrole-3-carboxamide], the “Y220C SC150 (μM)” value was “* (* = 0 μM ≤ SC150 < 0.1 μM)”.

On to `COCC(C)n1ccc(C(=O)NCc2nc(-c3cc4c(N[C@@H]5CCN(C)C[C@@H]5F)cccc4n3CC(F)(F)F)no2)c1` (stereo partly drawn) [Compound 289B, N-{[3-(4-{[(3S,4R)-3-fluoro-1-methylpiperidin-4-yl]amino}-1-(2,2,2-trifluoroethyl)-1H-indol-2-yl)-1,2,4-oxadiazol-5-yl]methyl}-1-(1-methoxypropan-2-yl)-1H-pyrrole-3-carboxamide], for which the “Y220C SC150 (μM)” value was “* (* = 0 μM ≤ SC150 < 0.1 μM)”.

In the case of `CN1CC[C@@H](Nc2cccc3c2cc(-c2noc(CNC(=O)c4ccc(C(C)(C)O)s4)n2)n3CC(F)(F)F)[C@@H](F)C1` [Compound 424B, N-[[3-[4-[[(3S,4R)-3-fluoro-1-methyl-4-piperidyl]amino]-1-(2,2,2-trifluoroethyl)indol-2-yl]-1,2,4-oxadiazol-5-yl]methyl]-5-(1-hydroxy-1-methyl-ethyl)thiophene-2-carboxamide], the “Y220C SC150 (μM)” value is “* (* = 0 μM ≤ SC150 < 0.1 μM)”.

Still in this assay, the particulars now being: concentration to increase DNA binding by […], incubated at either 27° C. or 29° C. for 60 min.
On to `N#Cc1cccc(-c2cc3c(NC4CCS(=O)(=O)CC4)cccc3n2CC(F)(F)F)c1` [Compound 10A, 3-{4-[(1,1-dioxo-1λ^6-thian-4-yl)amino]-1-(2,2,2-trifluoroethyl)-1H-indol-2-yl}benzonitrile], for which the “SC150 (μM)” value is “++++ (++++ = 10 μM ≤ SC150 < 35 μM)”.

Consider `CC(C)(C)c1ccc(C(=O)NCc2ccc(-c3cc4c(NC5CCS(=O)(=O)CC5)cccc4n3CC(F)(F)F)cc2)cc1` [Compound 15A, 4-tert-butyl-N-[(4-{4-[(1,1-dioxo-1λ^6-thian-4-yl)amino]-1-(2,2,2-trifluoroethyl)-1H-indol-2-yl}phenyl)methyl]benzamide], for which the “SC150 (μM)” value is reported as “+++ (+++ = 5 μM ≤ SC150 < 10 μM)”.
